In patent publication US8399610B2, “HPV vaccine comprising peptides from host cell proteins” (University College Cardiff Consultants Limited, priority 2004, dated 2013):

Legend:
[1] = tested on: T cell line KSI 10B7; experiment: Mapping of epitope(s) recognised by T cell line KSI 10B7, IFN-γ ELISPOT with T2 cells as APC; format: cell-based, human; conditions: individual peptides, triplicate
Protocol: T cells were tested by IFN-γ ELISPOT assays against either the whole BAX peptide mixture (1-23), or different sub-pools (1-9, 10-15, 16-23) or individual peptides (10, 11, 12, 13, 14 and 15). T2 cells (which only express HLA-A*0201) were used as APC. All combinations were tested in triplicate, with 600 spots being the maximum number that could be counted in these assays; and
Further immunomagnetic enrichment, flow sorting and expansion, led to the derivation of a T cell line (KSI 10B7), with 100% specificity for BAX peptides that bound to HLA-A*0201 (data not shown). This T cell line was tested by IFN-γ ELISPOT assays against either the whole BAX peptide mixture (1-23), or different sub-pools (1-9, 10-15, 16-23) or individual peptides (10, 11, 12, 13, 14 and 15). All combinations were tested in triplicate, with 600 spots being the maximum number that could be counted in these assays. KSI 10B7 T cells recognised two similar BAX peptides (10 and 13, FIG. 9). Both these peptides were predicted to bind to HLA-A*0201 (Table 4) and had similar amino acid sequences ([…] and […]). It is believed that the KSI 10B7 T cells recognised the […] sequence that is common to both peptides.

[2] = tested on: CD8+ pentamer+ T lymphocytes; experiment: Peptide:HLA-A2 pentamer staining of CD8+ T cells from healthy HLA-A2+ donors after 14 days culture with peptide; format: cell-based, human
Protocol: On day 0 and day 14 days, the numbers of peptide specific CD8^+ T cells were measured using appropriate fluoresceinated peptide:HLA-A2 pentamers. These were analysed on a flow cytometer and expressed as % of gated cells, excluding dead and […] cells.

[3] = tested on: IFN-γ producing T cells specific for the immunising peptide; experiment: In vivo immunogenicity in HLA-A*0201 transgenic mice, IFN-γ ELISPOT on splenocytes; parameters: species or system HLA-A2/Kb transgenic mice; conditions: responding/immunised mice; 100 μg peptide in incomplete freunds adjuvant, splenocytes after ten to eleven days
[4] = tested on: CD8+ T cells recognising Rb7 peptide; experiment: Detection of peptide specific CD8+ T cells in patient blood with fluoresceinated multimeric HLA-A2/peptide complexes; format: cell-based, human; conditions: 4 patients tested (3 with cervical cancer, 1 CIN3); low frequency
Protocol: T cells reactive against peptides of the invention should be preferentially found in HLA-A2 patients with cervical cancer. Blood samples from 4 patients (3 with cervical cancer, 1 with premalignant disease, CIN3) were tested for the presence of CD8^+ T cells recognising Rb7 peptide. Fluoresceinated multimeric HLA-A2/peptide complexes were used to measure numbers of peptide specific T cells by flow cytometry (10). […] These frequencies were similar to those previously obtained for HPV16 E7 peptide specific T cells (10).

Substance: IMGWTLDFL [BAX peptide 13]
- Recognition by KSI 10B7 T cells [1]: recognised

Substance: Rb7: peptide from Rb485-493 (Rb7) protein, derived from human Rb protein (SLLACALEV)
- Frequency of peptide specific T lymphocytes, in words ([2]; 8 healthy donors (all HLA-A2+)): variable but generally low frequencies
- Healthy donors in whom T lymphocytes recognising the peptide could be detected ([2]; 8 healthy donors (all HLA-A2+) tested): 8 healthy donors
- Frequency of CD8+ pentamer+ cells ([2]; healthy donor 1, 14 days culture with peptide): 1/2500
- Frequency of CD8+ pentamer+ cells ([2]; healthy donor 2, 14 days culture with peptide): 1/1000
- Frequency of CD8+ pentamer+ cells ([2]; healthy donor 3, 14 days culture with peptide): 1/1000
- Frequency of CD8+ pentamer+ cells ([2]; healthy donor 4, 14 days culture with peptide): 1/909
- Frequency of CD8+ pentamer+ cells ([2]; healthy donor 5, 14 days culture with peptide): 1/120
- Frequency of CD8+ pentamer+ cells ([2]; healthy donor 6, 14 days culture with peptide): 1/3333
- Frequency of CD8+ pentamer+ cells ([2]; healthy donor 7, 14 days culture with peptide): 1/2000
- Frequency of CD8+ pentamer+ cells ([2]; healthy donor 8, 14 days culture with peptide): 1/2500
- Mice with significant T cell responses (IFN-γ ELISPOT) [3]: 7/10
- Patients in whose blood T cells specific for Rb7 peptide could be detected [4]: 2 patients

Substance: TIMGWTLDFL [BAX peptide 10]
- Recognition by KSI 10B7 T cells [1]: recognised
